This passage reports EC50 results from patent US8431602B2, “Beta-amino acid derivatives for treatment of diabetes” (Merck Patent Gesellschaft mit beschrankter Haftung, priority 2008, dated 2013).

Structures are written as SMILES. Some results are limits rather than exact numbers.

This assay deals with T1, glucokinase (GK), human enzyme (Homo sapiens, UniProt P35557).
T1 sequence (P35557 1-465): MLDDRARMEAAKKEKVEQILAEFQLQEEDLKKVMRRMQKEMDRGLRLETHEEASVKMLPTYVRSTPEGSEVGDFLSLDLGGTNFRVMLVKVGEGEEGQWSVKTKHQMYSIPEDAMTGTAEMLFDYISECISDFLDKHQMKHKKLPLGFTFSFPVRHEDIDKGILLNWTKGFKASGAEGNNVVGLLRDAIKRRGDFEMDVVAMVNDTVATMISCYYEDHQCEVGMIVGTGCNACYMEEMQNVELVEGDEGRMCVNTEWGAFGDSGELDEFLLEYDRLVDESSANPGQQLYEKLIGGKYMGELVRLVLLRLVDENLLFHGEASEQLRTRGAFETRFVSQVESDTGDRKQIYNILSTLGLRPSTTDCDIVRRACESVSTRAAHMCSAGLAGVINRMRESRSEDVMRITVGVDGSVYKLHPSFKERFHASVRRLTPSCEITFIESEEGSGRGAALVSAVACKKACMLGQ
Description: Glucokinase Activation Assay (coupled enzyme assay with PK/LDH, NADH decline at 340 nm). It is filed as biochemical. Particulars: 2 mM glucose, half maximal effective concentration of activation. The method, then: Glucokinase Activation Screening Assay
GK activity (human or rat enzyme) is measured by a coupled enzyme assay using pyruvate kinase (PK) and lactate dehydrogenase (LDH) as coupling enzymes. GK activity is calculated from the decline in NADH monitored photometrically with a microtiter plate (MTP) reader at 340 nm.
For screening purposes, the GK assay is routinely run in a 384-MTP format, in a total volume of 33 μl/well. 10 μl of the ATP-regeneration solution (in HEPES-buffer*, pH 7.0, 6.73 U/ml pyruvate kinase, 6.8 U/ml lactate dehydrogenase) and 10 μl of the glucokinase-/glucose solution (15 μg/ml, 6.6 mM glucose in HEPES-buffer*, pH 7.0; the concentration of the glucose stock-solution was 660 mM in Millipore H2O) were mixed together with 3 μl of a 10% DMSO solution (in HEPES-buffer*, pH 7.0) containing […] the amounts of the compounds to achieve final compound concentrations in the range between 1 nM to 30 μM (sometimes 300 μM) in the assay solution (s. below). The solutions were mixed for 5 sec, and after a centrifugation at 243×g for 5 min, the solutions were preincubated for 25 min at room temperature. The reaction was started by the addition of 10 μl of the NADH-/ATP-solution (4.29 mM NADH, 4.95 mM ATP, in HEPES-buffer*). The MTP was shaken for 5 sec., and then, the absorbance at 340 nm was monitored continuously in a MTP-reader (TECAN Spectro fluor plus) for the next 27 min (with a MTP-cycling time of 199 sec.). The final concentrations of the various components were as follows: 49.5 mM Hepes, pH 7.0, 1.49 mM PEP, 1.3 mM NADH, 49.5 mM KCl, 4.96 mM MgCl2, 1.5 mM Mg-ATP, 1.98 mM DTT, 2.04 U/ml pyruvate kinase, 2.06 U/ml lactate-dehydrogenase, 0.91% DMSO, 0.15 μg/well glucokinase, and test compounds in the range between 1 nM and 300 μM, The change in the optical density (ΔOD340 nm) in the presence of the compound was expressed relative to the ΔOD340 nm, ctrl of the control incubation (in the presence of 2 mM glucose and 0.91% DMSO), taking into account the optical density of the blank sample (incubation in the absence of 2 mM glucose). For the determination of the half maximal effective concentration (EC50), the %-Ctrl-values were plotted in a semi-logarithmic graph against the cone. of the compound of interest. The data points were fitted to a sigmoid curve function (f(x)=((%-Ctrlmax−%-Ctrlmin)/(1−(EC50/x**^n(Hill)))+%-Ctrlmin)) by a non-linear regression analysis. • Hepes-buffer (50 mM Hepes, pH 7.0, 5 mM MgCl2, 50 mM KCl, 1.5 mM PEP, 0.1% BSA). DTT was added to the Hepes-buffer from a 200× stock solution (in Millipore H2O) freshly each day. The final concentration of DTT in the Hepes-buffer is 2 mM. Culture of Pancreatic INS-1 Cells
As a reminder, the EC50 is the concentration at which the effect is half-maximal. In turn, `COc1cc(C(CC(=O)Nc2ccc(C)cn2)N2Cc3ccccc3C2=O)cc(OC)c1OC` (stereo not drawn) [B7, N-(5-Methyl-pyridine-2-yl)-3-(1-oxo-1,3-dihydro-isoindole-2-yl)-3-(3,4,5-trimethoxy-phenyl)-propionamide] gave an EC50 of 1 to 10 µM. Regarding `CCOc1ccc(C(CC(=O)Nc2ccc(Cl)cn2)N2Cc3ccccc3C2=O)cc1OC` (single isomer, unassigned; (-)) [C5, (−)-N-(5-Chloro-pyridine-2-yl)-3-(4-ethoxy-3-methoxy-phenyl)-3-(1-oxo-1,3-dihydro-isoindole-2-yl)-propionamide], the half-maximal effective concentration (EC50) was more than 10 µM. The compound `CCOc1ccc(C(CC(=O)Nc2ccc(Cl)cn2)N2Cc3ccccc3C2=O)cc1OC` (stereo not drawn) [C23, N-(5-Chloro-pyridine-2-yl)-3-(4-ethoxy-3-methoxy-phenyl)-3-(1-oxo-1,3-dihydro-isoindole-2-yl)-propionamide] registered an EC50 of more than 10 µM. Consider `COc1ccc(C(CC(=O)Nc2ccc(Cl)cn2)N2Cc3ccccc3C2=O)cc1OC` (stereo not drawn) [B6, N-(5-Chloro-pyridine-2-yl)-3-(3,4-dimethoxy-phenyl)-3-(1-oxo-1,3-dihydro-isoindole-2-yl)-propionamide], for which the EC50 was more than 10 µM. The compound `COc1cc(C(CC(=O)Nc2ccc(Cl)cn2)N2Cc3ccccc3C2=O)cc(OC)c1OC` (single isomer, unassigned; (+)) [C1, (+)-N-(5-Chloro-pyridine-2-yl)-3-(1-oxo-1,3-dihydro-isoindole-2-yl)-3-(3,4,5-trimethoxy-phenyl)-propionamide] gave an EC50 of 1 to 10 µM.

In turn, `COc1cc(C(CC(=O)Nc2ccc(Cl)cn2)N2Cc3ccccc3C2=O)cc(OC)c1OC` (stereo not drawn) [B2, N-(5-Chloro-pyridine-2-yl)-3-(1-oxo-1,3-dihydro-isoindole-2-yl)-3-(3,4,5-trimethoxy-phenyl)-propionamide] registered an EC50 of 1 to 10 µM. `COc1cccc(C(CC(=O)Nc2ccc(Cl)cn2)N2Cc3ccccc3C2=O)c1OC` (stereo not drawn) [C3, N-(5-Chloro-pyridine-5-yl)-3-(2,3-dimethoxy-phenyl)-3-(1-oxo-1,3-dihydro-isoindole-2-yl)-propionamide] had an EC50 of more than 10 µM. On to `COc1ccc(C(CC(=O)Nc2ccc(Br)cn2)N2Cc3ccccc3C2=O)cc1OC` (stereo not drawn) [B5, N-(5-Bromo-pyridine-2-yl)-3-(3,4-dimethoxy-phenyl)-3-(1-oxo-1,3-dihydro-isoindole-2-yl)-propionamide], for which the EC50 was more than 10 µM. Compound `CCOc1ccc(C(CC(=O)Nc2ccc(Cl)cn2)N2Cc3ccccc3C2=O)cc1OC` (single isomer, unassigned; (+)) [C4, (+)-N-(5-Chloro-pyridine-2-yl)-3-(4-ethoxy-3-methoxy-phenyl)-3-(1-oxo-1,3-dihydro-isoindole-2-yl)-propionamide] displayed an EC50 of more than 10 µM.
